Patent US20240425500A1 (priority 2021, published 2024)

Key:
Plasmopara viticola = assay: whole plant or invertebrate; type: in vivo; settings: foliar, read-out: control of Plasmopara viticola compared to untreated control
Pythium ultimum = Pythium ultimum / liquid culture (seedling damping off); type: cell-based; settings: Globisporangium ultimum, liquid culture in PDB, 24 °C, 2-3 days after application, read-out: control of Pythium ultimum (inhibition of growth, photometric) compared to untreated control
Procedure, shortened: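 Mycelia fragments and oospores from fresh liquid culture mixed into potato dextrose broth and added to compound in DMSO. Incubated at 24° C.; growth inhibition read photometrically 2–3 days after application.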

Phytophthora infestans = assay: whole plant or invertebrate; type: in vivo; settings: in Solanum lycopersicum, foliar, read-out: control of Phytophthora infestans compared to untreated control

COC(=O)Nc1ccc(-c2cnc3ccc(C(=O)N(C)c4cccc(OC)c4)cn23)cn1 [Compound 63, methyl N-[5-[6-[(3-methoxyphenyl)-methyl-carbamoyl]imidazo[1,2-a]pyridin-3-yl]-2-pyridyl]carbamate]
≥ 80%: pest or weed control at 200 ppm (Plasmopara viticola) | inhibition at 20 ppm (Pythium ultimum) | pest or weed control at 200 ppm (Phytophthora infestans)

CCN(C(=O)c1ccc2ncc(-c3ccc(NC(=O)OC)nc3)n2c1)c1ccc(F)c(C)c1 [Compound 116, methyl N-[5-[6-[ethyl-(4-fluoro-3-methyl-phenyl)carbamoyl]imidazo [1,2-a]pyridin-3-yl]-2-pyridyl]carbamate]
≥ 80%: pest or weed control at 200 ppm (Plasmopara viticola) | inhibition at 20 ppm (Pythium ultimum) | pest or weed control at 200 ppm (Phytophthora infestans)

COC(=O)Nc1ccc(-c2cnc3ccc(C(=O)N(C)c4ccc(F)c(O)c4)cn23)cn1 [Compound 96, methyl N-[5-[6-[(4-fluoro-3-hydroxy-phenyl)-methyl-carbamoyl]imidazo[1,2-a]pyridin-3-yl]-2-pyridyl]carbamate]
≥ 80%: pest or weed control at 200 ppm (Plasmopara viticola) | inhibition at 20 ppm (Pythium ultimum) | pest or weed control at 200 ppm (Phytophthora infestans)

COC(=O)Nc1ccc(-c2cnc3ccc(C(=O)N(C)c4ccc(C#N)c(OC)c4)cn23)cn1 [Compound 51, methyl N-[5-[6-[(4-cyano-3-methoxy-phenyl)-methyl-carbamoyl]imidazo[1,2-a]pyridin-3-yl]-2-pyridyl]carbamate]
≥ 80%: pest or weed control at 200 ppm (Plasmopara viticola) | inhibition at 20 ppm (Pythium ultimum) | pest or weed control at 200 ppm (Phytophthora infestans)

COC(=O)Nc1ccc(-c2cnc3ccc(C(=O)N(C)c4ccc(Cl)c(C)c4)cn23)cn1 [Compound 46, methyl N-[5-[6-[(4-chloro-3-methyl-phenyl)-methyl-carbamoyl]imidazo[1,2-a]pyridin-3-yl]-2-pyridyl]carbamate]
≥ 80%: pest or weed control at 200 ppm (Plasmopara viticola) | inhibition at 20 ppm (Pythium ultimum) | pest or weed control at 200 ppm (Phytophthora infestans)

COCN(C(=O)c1cc(C)c2ncc(-c3ccc(NC(=O)OC)nc3)n2c1)c1ccc(F)c(OC)c1 [Compound 94, methyl N-[5-[6-[(4-fluoro-3-methoxy-phenyl)-(methoxymethyl)carbamoyl]-8-methyl-imidazo[1,2-a]pyridin-3-yl]-2-pyridyl]carbamate]
≥ 80%: pest or weed control at 200 ppm (Plasmopara viticola) | inhibition at 20 ppm (Pythium ultimum) | pest or weed control at 200 ppm (Phytophthora infestans)

COC(=O)Nc1ccc(-c2cnc3ccc(C(=O)N(C)c4ccc(C#N)c(C)c4)cn23)cn1 [Compound 53, methyl N-[5-[6-[(4-cyano-3-methyl-phenyl)-methyl-carbamoyl]imidazo[1,2-a]pyridin-3-yl]-2-pyridyl]carbamate]
≥ 80%: pest or weed control at 200 ppm (Plasmopara viticola) | inhibition at 20 ppm (Pythium ultimum) | pest or weed control at 200 ppm (Phytophthora infestans)

COC(=O)Nc1ccc(-c2cnc3ccc(C(=O)N(C)c4cccc(I)c4)cn23)cn1 [Compound 73, methyl N-[5-[6-[(3-iodophenyl)-methyl-carbamoyl]imidazo[1,2-a]pyridin-3-yl]-2-pyridyl]carbamate]
≥ 80%: pest or weed control at 200 ppm (Plasmopara viticola) | inhibition at 20 ppm (Pythium ultimum) | pest or weed control at 200 ppm (Phytophthora infestans)

COC(=O)Nc1ccc(-c2cnc3ccc(C(=O)N(CC#N)c4ccc(Cl)c(OC)c4)cn23)cn1 [Compound 90, methyl N-[5-[6-[(4-chloro-3-methoxy-phenyl)-(cyanomethyl)carbamoyl]imidazo[1,2-a]pyridin-3-yl]-2-pyridyl]carbamate]
≥ 80%: pest or weed control at 200 ppm (Plasmopara viticola) | inhibition at 20 ppm (Pythium ultimum) | pest or weed control at 200 ppm (Phytophthora infestans)

COC(=O)Nc1ccc(-c2cnc3c(Br)cc(C(=O)N(C)c4ccc(F)cc4)cn23)cn1 [Compound 98, methyl N-[5-[8-bromo-6-[(4-fluorophenyl)-methyl-carbamoyl]imidazo[1,2-a]pyridin-3-yl]-2-pyridyl]carbamate]
≥ 80%: pest or weed control at 200 ppm (Plasmopara viticola) | inhibition at 20 ppm (Pythium ultimum) | pest or weed control at 200 ppm (Phytophthora infestans)

COC(=O)Nc1ccc(-c2cnc3ccc(C(=O)N(C)c4ccc(F)cc4)cn23)cc1 [Compound 11, methyl N-[4-[6-[(4-fluorophenyl)-methyl-carbamoyl]imidazo[1,2-a]pyridin-3-yl]phenyl]carbamate]
≥ 80%: pest or weed control at 200 ppm (Plasmopara viticola) | inhibition at 20 ppm (Pythium ultimum) | pest or weed control at 200 ppm (Phytophthora infestans)

CCN(C(=O)c1ccc2ncc(-c3ccc(NC(=O)OC)cc3)n2c1)c1ccc(Cl)cc1 [Compound 32, methyl N-[4-[6-[(4-chlorophenyl)-ethyl-carbamoyl]imidazo[1,2-a]pyridin-3-yl]phenyl]carbamate]
≥ 80%: pest or weed control at 200 ppm (Plasmopara viticola) | inhibition at 20 ppm (Pythium ultimum) | pest or weed control at 200 ppm (Phytophthora infestans)

COC(=O)Nc1ccc(-c2cnc3c(NC(C)=O)cc(C(=O)N(C)c4ccc(F)cc4)cn23)cn1 [Compound 100, methyl N-[5-[8-acetamido-6-[(4-fluorophenyl)-methyl-carbamoyl]imidazo[1,2-a]pyridin-3-yl]-2-pyridyl]carbamate]
≥ 80%: pest or weed control at 200 ppm (Plasmopara viticola) | inhibition at 20 ppm (Pythium ultimum) | pest or weed control at 200 ppm (Phytophthora infestans)

COC(=O)Nc1ccc(-c2cnc3ccc(C(=O)N(C)c4ccc(F)c(OC)c4)cn23)cn1 [Compound 45, methyl N-[5-[6-[(4-fluoro-3-methoxy-phenyl)-methyl-carbamoyl]imidazo[1,2-a]pyridin-3-yl]-2-pyridyl]carbamate]
≥ 80%: pest or weed control at 200 ppm (Plasmopara viticola) | inhibition at 20 ppm (Pythium ultimum) | pest or weed control at 200 ppm (Phytophthora infestans)

COC(=O)Nc1ccc(-c2cnc3c(C)cc(C(=O)N(C)c4ccc(F)c(F)c4)cn23)cn1 [Compound 174, methyl N-[5-[6-[(3,4-difluorophenyl)-methyl-carbamoyl]-8-methyl-imidazo[1,2-a]pyridin-3-yl]-2-pyridyl]carbamate]
≥ 80%: pest or weed control at 200 ppm (Plasmopara viticola) | inhibition at 20 ppm (Pythium ultimum) | pest or weed control at 200 ppm (Phytophthora infestans)

CCc1cc(C(=O)N(C)c2ccc(F)cc2)cn2c(-c3ccc(NC(=O)OC)nc3)cnc12 [Compound 170, methyl N-[5-[8-ethyl-6-[(4-fluorophenyl)-methyl-carbamoyl]imidazo[1,2-a]pyridin-3-yl]-2-pyridyl]carbamate]
≥ 80%: pest or weed control at 200 ppm (Plasmopara viticola) | inhibition at 20 ppm (Pythium ultimum) | pest or weed control at 200 ppm (Phytophthora infestans)

COC(=O)Nc1ccc(-c2cnc3ccc(C(=O)N(C)c4ccnc(OC)c4)cn23)cn1 [Compound 70, methyl N-[5-[6-[(2-methoxy-4-pyridyl)-methyl-carbamoyl]imidazo[1,2-a]pyridin-3-yl]-2-pyridyl]carbamate]
≥ 80%: pest or weed control at 200 ppm (Plasmopara viticola) | inhibition at 20 ppm (Pythium ultimum) | pest or weed control at 200 ppm (Phytophthora infestans)

COC(=O)Nc1ccc(-c2cnc3ccc(C(=O)N(C)c4cccc(C(F)F)c4)cn23)cn1 [Compound 57, methyl N-[5-[6-[[3-(difluoromethyl)phenyl]-methyl-carbamoyl]imidazo[1,2-a]pyridin-3-yl]-2-pyridyl]carbamate]
≥ 80%: pest or weed control at 200 ppm (Plasmopara viticola) | inhibition at 20 ppm (Pythium ultimum) | pest or weed control at 200 ppm (Phytophthora infestans)

CCN(C(=O)c1ccc2ncc(-c3ccc(NC(=O)OC)nc3)n2c1)c1ccc(F)cc1 [Compound 136, methyl N-[5-[6-[ethyl-(4-fluorophenyl)carbamoyl]imidazo[1,2-a]pyridin-3-yl]-2-pyridyl]carbamate]
≥ 80%: pest or weed control at 200 ppm (Plasmopara viticola) | inhibition at 20 ppm (Pythium ultimum) | pest or weed control at 200 ppm (Phytophthora infestans)

CCN(C(=O)c1ccc2ncc(-c3ccc(NC(=O)OC)nc3)n2c1)c1cccc(OC)c1 [Compound 124, methyl N-[5-[6-[ethyl-(3-methoxyphenyl)carbamoyl]imidazo[1,2-a]pyridin-3-yl]-2-pyridyl]carbamate]
≥ 80%: pest or weed control at 200 ppm (Plasmopara viticola) | inhibition at 20 ppm (Pythium ultimum) | pest or weed control at 200 ppm (Phytophthora infestans)
